According to US9816075B2, “Compounds with modifying activity enhanced under hypoxic conditions” (Board of Regents, The University of Texas System, priority 2005, dated 2017):
Marks after values point to notes of the source that are not given here.

Assays:
[1] = Animal toxicity screen / MTD by intraperitoneal injection; conditions: for MTD: intraperitoneal, mice, a = maximum dose due to poor solubility, b = acutely toxic with a single animal at 0.2 mg in 200 μL (about 6.0 mg/kg); for survival in toxicity screen: 0.2 mg in 200 μL 10 mM Tris buffer pH 7.5, intraperitoneal
Description: Animal toxicity screens were performed by intraperitoneal injection of suitable compounds in C57BL/6NTac mice (each with an approximate weight of 30 g). For each animal, 0.2 mg of each compound in 200 μL 10 mM Tris buffer, pH 7.5 was used. […] These were further examined by injecting at least three mice with 200 μL of a freshly prepared aqueous solution of each compound at concentrations of 0.5 mg/mL, 2 mg/mL, 5 mg/mL, 10 mg/mL, 25 mg/mL and 50 mg/mL to determine MTD values.

[2] = test system: H358, a bronchioalveolar non-small cell lung cancer cell line; experiment: MTT drug sensitivity assay; assay type: cell-based; conditions: 96 hours incubation; concentration that reduced formazan formation by 50%
Description: For cytotoxicity of suitable compounds a standard MTT drug sensitivity assay was performed on cancer cells, including H358, a bronchioalveolar non-small cell lung cancer cell line. Cell density in an aliquot of cells growing in log phase was determined by counting trypan blue excluding cells in a hemocytometer and 20,000 cells were plated into each well of 96-well flat-bottomed microliter plates.

[3] = Cyclic voltammetry / reduction potentials; assay type: physicochemical; conditions: cyclic voltammetry in aqueous solution, versus normal hydrogen electrode
Text: This is depicted in FIG. 4 in which compounds having a tatpp or tatpq bridging ligand are provided as examples. Preferred bridging ligands have modest potentials in order for them to be accessible in a cellular milieu. […] For TJ-7p of FIG. 2, a compound in which tatpq is the bridging ligand, the first two reductions were at 70 mV and −80 mV versus the normal hydrogen electrode. These potentials are modest and easily accessible in a cellular milieu.
The reduction potential for compounds is such that these compounds are accessible to one or more reducing agents, especially in biologic conditions. For example, the bridging ligand, tatpp, when bound by two ruthenium ions in P^4+, has a reduction potential […] of about −0.22 V versus Ag/AgCl in acetonitrile. An alternate charged form of P^4+, P^3+, has an E1/2 of about −0.71 V versus Ag/AgCl in acetonitrile. These E1/2 values of the complexes make them accessible to one or more suitable reducing agents in biologic conditions.

supercoiled pUC18 DNA = experiment: Modification (strand breaks) of supercoiled plasmid DNA, gel electrophoresis; assay type: biochemical; conditions: 12.8 μM, anaerobic, about one hour
Description: Referring now to FIG. 6, supercoiled DNA (0.154 mM base pairs) was modified by a diastereomeric mixture of the P^4+ complex in the presence and absence of a reducing agent. Lane M was the marker lane. Lane 1 was a DNA control without a reducing agent. Lane 2 included DNA without P^4+ under aerobic conditions (e.g., in the presence of oxygen or O2) with GSH, Lane 2′ included DNA with GSH (0.513 mM) without P^4+ under anaerobic conditions (e.g., hypoxia). Lanes 3, 4 and 5 were representative of modifications under aerobic (O2) conditions and lanes 2′, 3′, 4′ and 5′ were representative of modifications under anaerobic (hypoxia or absent O2) conditions. […]
Modification reactions were carried out in 0.5 mL Eppendorf tubes with 2 μL of a supercoiled pUC18 DNA (1 μg/1 μL) in a total volume of 20 μL using a 5 mM sodium phosphate buffer (pH 7). […] DNA was then dried for about 30 minutes and resuspended in about 40 μL of a storage buffer (e.g., 40 mM Tris-Cl, 1 mM EDTA at pH 8.0) with 65 μL of deionized water and 12 μL of a loading buffer (e.g., 30% glycerol in water with 0.1% w/v bromophenol blue), Each reaction was then evaluated by standard gel electrophoresis methods (e.g., loaded on 1% agarose gel stained with ethidium bromide and electrophoresed at about 80 volts for about 90 minutes using a Tris-acetate-EDTA buffer at pH 8.0). […]

calf thymus Topo I = experiment: Topoisomerase I relaxation of supercoiled DNA; assay type: biochemical; conditions: 0.62-3.08 μM
Description: FIGS. 19 and 20 illustrate the ability of suitable compounds to modify Topo I and Topo II. […] For FIG. 19, lane M was the marker lane containing forms I, II and III of a DNA. For all other lanes, the DNA was supercoiled pUC18 at 30.8 μM per reaction. Lane 1 was, the DNA used was pUC18 at 30.8 μM base pairs per reaction, without compound or inhibitor. Lane 2 was DNA with Tope I and no compound. Lane 3 was DNA with inhibitor, CPT. Lane 4-6 included varying concentrations of P^4+ (3.08 μM, 1.54 μM and 0.62 μM, respectively). Lane 7-9 included varying concentrations of Q^4+ (3.08 μM, 1.54 μM and 0.62 μM, respectively).
Reaction conditions for FIGS. 19 and 20 included the addition of DNA and 5 units of calf thymus Topo I in the presence or absence of either a known inhibitor (CPT), P^4+ or Q^4+. Both P^4+ and Q^4+ were examined at varying concentrations, 0.62 μM-3.08 μM. Samples were incubated at 37 degrees Centigrade in an assay buffer (e.g., 10 mM Tri-HCl at pH 7.9, 150 mM NaCl, 1 mM EDTA, 0.1% BSA, 0.1 mM spermidine, and 5% glycerol) for about 30 minutes to allow for appropriate cleavage and religation. Relaxed intermediates were then trapped by adding 5 μL of a stopping buffer (e.g., 5% SDS, 0.05% bromophenol blue and 30% glycerol). […]

Topo II = experiment: Topoisomerase II activity on supercoiled DNA; assay type: biochemical; conditions: 0.46-2.31 μM
Description: As shown, M was the marker lane containing forms I, II and III of a DNA. For all other lanes, the DNA was supercoiled pUC18 at 30.8 μM base pairs per reaction. Lane 1 was DNA without compound or inhibitor. Lane 2 was DNA with Topo H and no compound. Lane 3 was DNA with inhibitor, m-AMSA. Lanes 4-6 included varying concentrations of P^4+ (2.31 μM, 1.15 μM and 0.46 μM, respectively). Lanes 7-9 included varying concentrations of Q^4+ (2.31 μM, 1.15 μM and 0.46 μM, respectively).
For conditions using Topo II, reactions were generally performed as described for Topo I, except that 23.1 μM of DNA was used per reaction along with either the inhibitor (m-AMSA) or varying concentrations of P^4+ or Q^4+ (0.46 to 2.31 μM) in a total volume of 20 μL. The assay buffer was altered for improved Topo II activity (using 10 mM Tris-HCl at pH 7.9, 50 mM NaCl, 50 mM KCl, 5 mM MgCl2, 0.1 mM EDTA, 0.15 mg mL BSA, and 1 mM ATP) as was the running buffer (using 100 mM Tris-borate, pH 8.3, 2 mM BDTA).

Question: For [Ru2(bpy)2(tpphz)(C2O4)2], which MTD [1] is on record?
Answer: Its MTD is >15^a mg/kg.

Question: And the IC50 [2]?
Answer: The IC50 was 100 ± 10 µM.

Question: For “[Ru2(phen)4tatpp]^4+ [[Ru2(phen)4(tatpp)]^4+]”, which “survival in toxicity screen” value [1] is on record?
Answer: Its value is “survived”.

Question: What about the IC50 [2] of the same substance?
Answer: Its IC50 is 8 ± 1 µM.

Question: And the first reduction potential [3]?
Answer: The first reduction potential was 170 mV.

Question: And the second reduction potential [3]?
Answer: Its second reduction potential is −180 mV.

Question: For Iron(II)-Bleomycin [Fe-BLM], which “DNA modification in the absence of oxygen, FIG. 7” value (supercoiled pUC18 DNA) is on record?
Answer: Its value is “unable to modify or break DNA in the absence of oxygen”.

Question: Which results are given for [Ru2(bpy)2(tpphz)(CO)2(Cl)2]^4+?
Answer: MTD [1]: <6^b mg/kg; IC50 [2]: 8 ± 1 µM

Question: Which results are given for “[Ru2(phen)4tatpq]^4+ [[Ru2(phen)4(tatpq)]^4+]”?
Answer: Topo I inhibition compared with camptothecin (CPT) (calf thymus Topo I): better than that of the known inhibitor, camptothecin; Topo I inhibition, FIG. 19 (calf thymus Topo I; 37 degrees Centigrade, about 30 minutes): inhibited Topo I and its relaxation of supercoiled DNA; survival in toxicity screen [1]: survived; IC50 [2]: 1 ± 0.1 µM; Topo II inhibition compared with amsacrine (m-AMSA) (Topo II): better than that of the known inhibitor, amsacrine; Topo II inhibition, FIG. 20 (Topo II): inhibited Topo II and its activity on supercoiled DNA; first reduction potential [3]: 70 mV; second reduction potential [3]: −80 mV

Question: Which MTD [1] does the source give for [Ru2(bpy)2(tpphz)(CH3CN)4]^4+ here?
Answer: Its MTD is <6^b mg/kg.

Question: What about the IC50 [2] of the same substance?
Answer: The IC50 was 21 ± 2 µM.

Question: Which MTD [1] does the source give for [Ru2(bpy)2(tpphz)(CO)4]^4+ here?
Answer: The MTD was >6^a mg/kg.
